Literature values in patent US9750683B2, “Antifungal compositions for the treatment of skin and nails” (Veloce BioPharma, LLC, priority 2012, dated 2017).
Where two headings read alike, the source gives them in different places.

ratio of penetration (dissolved in DMSO, relative to the other solvents): 60
ratio of penetration (dissolved in alcohol): 3
ratio of penetration (dissolved in benzene): 1
ratio of penetration (dissolved in dimethylacetamide): 40
ratio of penetration (dissolved in dimethylformamide): 7
Structure (SMILES): COC1=CC(=O)C[C@@H](C)[C@]12Oc1c(Cl)c(OC)cc(OC)c1C2=O [griseofulvin]
